{"source": "ChEMBL document CHEMBL4837235", "about": "“Cyclic Imine Pinnatoxin G is Cytotoxic to Cancer Cell Lines via Nicotinic Acetylcholine Receptor-Driven Classical Apoptosis” (2021)", "key": {"PC-3 [1]": {"system": "PC-3", "assay": "Induction of apoptosis in human PC-3 cells assessed as early apoptosis at 5 uM measured after 72 hrs by AnnexinV/propidium iodide staining based flow cytometry", "assay_type": "functional"}, "[2]": {"target": "T1, Neuronal acetylcholine receptor (Homo sapiens) (UniProt P17787+P30926+P32297+P43681+Q15822+Q9UGM1+Q15825+P30532+P36544+Q9GZZ6+Q05901)", "assay": "Antagonist activity at nAChR in human MDA-MB-231 cells assessed as reduction cytoplasmic free calcium level at 5 uM measured upto 6 hrs by Fura2-AM dye based fluorescence assay", "assay_type": "cell-based", "settings": "time hrs <=6"}, "HT-29 [3]": {"system": "HT-29", "assay": "Cell cycle arrest in human HT-29 cells assessed as accumulation of cells at G2/M phase at 5 uM after 72 hrs by propidium iodide staining based flow cytometric analysis (reference value: 22.3+/- 0.4%)", "assay_type": "functional"}, "MDA-MB-231 [4]": {"system": "MDA-MB-231", "assay": "Induction of apoptosis in human MDA-MB-231 cells assessed as early apoptosis at 5 uM measured after 72 hrs by AnnexinV/propidium iodide staining based flow cytometry", "assay_type": "functional"}, "PC-3 [5]": {"system": "PC-3", "assay": "Cell cycle arrest in human PC-3 cells assessed as accumulation of cells at G0/G1 phase at 5 uM after 72 hrs by propidium iodide staining based flow cytometric analysis (reference value: 59.7+/- 0.2%)", "assay_type": "functional"}, "MDA-MB-231 [6]": {"system": "MDA-MB-231", "assay": "Cell cycle arrest in human MDA-MB-231 cells assessed as accumulation of cells at G0/G1 phase at 5 uM after 72 hrs by propidium iodide staining based flow cytometric analysis (reference value: 57.7+/- 0.6%)", "assay_type": "functional"}, "LN-18 [7]": {"system": "LN-18", "assay": "Cytotoxicity against human LN-18 cells assessed as reduction in cell viability at 5 uM after 24 to 72 hrs by MTT assay", "assay_type": "functional, cell-based", "settings": "time 24-72 hrs"}, "[8]": {"target": "T1, Neuronal acetylcholine receptor (Homo sapiens)", "assay": "Antagonist activity at nAChR in human HT-29 cells assessed as reduction in cytoplasmic free calcium level at 5 uM measured upto 6 hrs by Fura2-AM dye based fluorescence assay", "assay_type": "cell-based", "settings": "time hrs <=6"}, "[9]": {"assay": "Cytotoxicity against human U373 cells assessed as reduction in cell viability at 5 uM after 72 hrs by MTT assay", "assay_type": "functional, U-373MG ATCC", "settings": "U373 MG"}, "MDA-MB-231 [10]": {"system": "MDA-MB-231", "assay": "Induction of apoptosis in human MDA-MB-231 cells assessed as caspase activation using Ac-DEVD-AMC as substrate at 5 uM measured after 72 hrs by fluorometric assay relative to control", "assay_type": "functional"}, "PC-3 [11]": {"system": "PC-3", "assay": "Cell cycle arrest in human PC-3 cells assessed as decrease in accumulation of cells at G2/M phase at 5 uM after 72 hrs by propidium iodide staining based flow cytometric analysis", "assay_type": "functional"}, "[12]": {"target": "T1, Neuronal acetylcholine receptor (Homo sapiens)", "assay": "Antagonist activity at nAChR in human PC-3 cells assessed as reduction in cytoplasmic free calcium level at 5 uM measured upto 6 hrs by Fura2-AM dye based fluorescence assay", "assay_type": "cell-based", "settings": "time hrs <=6"}, "HT-29 [13]": {"system": "HT-29", "assay": "Induction of mitochondrial membrane permeability in human HT-29 cells assessed as mitochondrial membrane permeability at 5 uM measured after 72 hrs by TMRE staining based analysis (reference value: 7%)", "assay_type": "functional"}, "U-373MG ATCC": {"system": "U-373MG ATCC", "assay": "Cytotoxicity against human U373 cells assessed as reduction in cell viability at 5 uM after 24 to 72 hrs by MTT assay", "assay_type": "functional, cell-based", "settings": "time 24-72 hrs"}, "PC-3 [14]": {"system": "PC-3", "assay": "Cell cycle arrest in human PC-3 cells assessed as accumulation of cells at subG1 phase at 5 uM after 72 hrs by propidium iodide staining based flow cytometric analysis (reference value: 3.7+/- 0.2%)", "assay_type": "functional"}, "MDA-MB-231 [15]": {"system": "MDA-MB-231", "assay": "Cytotoxicity against human MDA-MB-231 cells assessed as reduction in cell viability at 5 uM after 24 hrs by MTT assay", "assay_type": "functional, cell-based"}, "HT-29 [16]": {"system": "HT-29", "assay": "Induction of apoptosis in human HT-29 cells assessed as early apoptosis at 5 uM measured after 72 hrs by AnnexinV/propidium iodide staining based flow cytometry", "assay_type": "functional"}, "PC-3 [17]": {"system": "PC-3", "assay": "Cytotoxicity against human PC-3 cells assessed as reduction in cell viability at 5 uM after 48 to 72 hrs by MTT assay", "assay_type": "functional, cell-based", "settings": "time 48-72 hrs"}, "HeLa": {"system": "HeLa", "assay": "Cytotoxicity against human HeLa cells assessed as loss of cell viability at 5.76 uM measured after 72 hrs by MTT assay", "assay_type": "functional"}, "LN-18 [18]": {"system": "LN-18", "assay": "Cytotoxicity against human LN-18 cells assessed as reduction in cell viability at 5 uM after 72 hrs by MTT assay", "assay_type": "functional"}, "U-87 MG [19]": {"system": "U-87 MG", "assay": "Cytotoxicity against human U87 cells assessed as reduction in cell viability at 5 uM after 72 hrs by MTT assay", "assay_type": "functional, U-87MG ATCC"}, "PC-3 [20]": {"system": "PC-3", "assay": "Induction of mitochondrial membrane permeability in human PC-3 cells assessed as mitochondrial membrane permeability at 5 uM measured after 72 hrs by TMRE staining based analysis (reference value: 7%)", "assay_type": "functional"}, "PC-3 [21]": {"system": "PC-3", "assay": "Induction of apoptosis in human PC-3 cells assessed as caspase activation using Ac-DEVD-AMC as substrate at 5 uM measured after 72 hrs by fluorometric assay relative to control", "assay_type": "functional"}, "MDA-MB-231 [22]": {"system": "MDA-MB-231", "assay": "Cytotoxicity against human MDA-MB-231 cells assessed as reduction in cell viability at 5 uM after 72 hrs by MTT assay", "assay_type": "functional"}, "N2a": {"system": "N2a", "assay": "Cytotoxicity against mouse Neuro2a cells assessed as cell viability at 0.46 uM measured after 72 hrs by MTT assay", "assay_type": "functional, cell-based"}, "HT-29 [23]": {"system": "HT-29", "assay": "Cell cycle arrest in human HT-29 cells assessed as accumulation of cells at subG1 phase at 5 uM after 72 hrs by propidium iodide staining based flow cytometric analysis (reference value: 1.9+/- 0.1%)", "assay_type": "functional"}, "HT-29 [24]": {"system": "HT-29", "assay": "Cell cycle arrest in human HT-29 cells assessed as accumulation of cells at S phase at 5 uM after 72 hrs by propidium iodide staining based flow cytometric analysis (reference value: 5.3+/- 0.4%)", "assay_type": "functional"}, "MDA-MB-231 [25]": {"system": "MDA-MB-231", "assay": "Cell cycle arrest in human MDA-MB-231 cells assessed as decrease in accumulation of cells at G2/M phase at 5 uM after 72 hrs by propidium iodide staining based flow cytometric analysis", "assay_type": "functional"}, "PC-3 [26]": {"system": "PC-3", "assay": "Cytotoxicity against human PC-3 cells assessed as reduction in cell viability at 5 uM after 24 hrs by MTT assay", "assay_type": "functional, cell-based"}, "MDA-MB-231 [27]": {"system": "MDA-MB-231", "assay": "Induction of mitochondrial membrane permeability in human MDA-MB-231 cells assessed as mitochondrial membrane permeability at 5 uM measured after 72 hrs by TMRE staining based analysis (reference value: 7%)", "assay_type": "functional"}, "PC-3 [28]": {"system": "PC-3", "assay": "Cytotoxicity against human PC-3 cells assessed as reduction in cell viability at 5 uM after 72 hrs by MTT assay", "assay_type": "functional"}, "Caco-2": {"system": "Caco-2", "assay": "Cytotoxicity against human Caco-2 cells assessed as cell viability at 0.46 uM measured after 72 hrs by MTT assay", "assay_type": "functional, cell-based"}, "HT-29 [29]": {"system": "HT-29", "assay": "Induction of apoptosis in human HT-29 cells assessed as caspase activation using Ac-DEVD-AMC as substrate at 5 uM measured after 72 hrs by fluorometric assay relative to control", "assay_type": "functional"}, "HT-29 [30]": {"system": "HT-29", "assay": "Cytotoxicity against human HT-29 cells assessed as reduction in cell viability at 5 uM after 24 to 72 hrs by MTT assay", "assay_type": "functional, cell-based", "settings": "time 24-72 hrs"}, "MDA-MB-231 [31]": {"system": "MDA-MB-231", "assay": "Cell cycle arrest in human MDA-MB-231 cells assessed as accumulation of cells at subG1 phase at 5 uM after 72 hrs by propidium iodide staining based flow cytometric analysis (reference value: 1.1+/- 0.1%)", "assay_type": "functional"}, "U-87 MG [32]": {"system": "U-87 MG", "assay": "Cytotoxicity against human U87 cells assessed as reduction in cell viability at 5 uM after 24 to 72 hrs by MTT assay", "assay_type": "functional, cell-based", "settings": "U-87MG ATCC, time 24-72 hrs"}, "MDA-MB-231 [33]": {"system": "MDA-MB-231", "assay": "Cytotoxicity against human MDA-MB-231 cells assessed as reduction in cell viability at 5 uM after 48 to 72 hrs by MTT assay", "assay_type": "functional, cell-based", "settings": "time 48-72 hrs"}, "HT-29 [34]": {"system": "HT-29", "assay": "Cytotoxicity against human HT-29 cells assessed as reduction in cell viability at 5 uM after 72 hrs by MTT assay", "assay_type": "functional"}}, "note": "Activity calls are given as the source filed them. No cut-off for these calls is given here.", "data": [{"smiles": "C=CC1=C[C@@H]2[C@@H]3O[C@]4(C[C@H]5CCC[C@@]6(CC[C@@]7(O[C@@H](CC[C@@]7(C)O)CC(=C)CCCC7=NC[C@H](C)[C@@H](C)C[C@@]72CC1)O6)O5)C[C@@H](C)[C@@H](O)[C@H]3O4", "values": [{"measurement": "Activity", "setting": "PC-3 [1]", "result": 13.9, "unit": "%"}, {"measurement": "inhibition", "setting": "[2]", "result": 23.6, "unit": "%"}, {"measurement": "Activity", "setting": "HT-29 [3]", "result": 32.5, "unit": "%"}, {"measurement": "Activity", "setting": "MDA-MB-231 [4]", "result": 13.7, "unit": "%"}, {"measurement": "Activity", "setting": "PC-3 [5]", "result": 65.4, "unit": "%"}, {"measurement": "Activity", "setting": "MDA-MB-231 [6]", "result": 62.4, "unit": "%"}, {"measurement": "Activity", "setting": "LN-18 [7]", "result": "Active"}, {"measurement": "inhibition", "setting": "[8]", "result": 16.2, "unit": "%"}, {"measurement": "inhibition at 5 µM", "setting": "[9]", "result": 50, "unit": "%"}, {"measurement": "fold change (FC)", "setting": "MDA-MB-231 [10]", "result": 5.5}, {"measurement": "Activity", "setting": "PC-3 [11]", "result": "Active"}, {"measurement": "inhibition", "setting": "[12]", "result": 14.2, "unit": "%"}, {"measurement": "Activity", "setting": "HT-29 [13]", "result": 17.9, "unit": "%"}, {"measurement": "Activity", "setting": "U-373MG ATCC", "result": "Active"}, {"measurement": "Activity", "setting": "PC-3 [14]", "result": 9.7, "unit": "%"}, {"measurement": "Activity", "setting": "MDA-MB-231 [15]", "result": "inactive"}, {"measurement": "Activity", "setting": "HT-29 [16]", "result": 10.7, "unit": "%"}, {"measurement": "Activity", "setting": "PC-3 [17]", "result": "Active"}, {"measurement": "Activity", "setting": "HeLa", "result": 27, "unit": "%"}, {"measurement": "inhibition at 5 µM", "setting": "LN-18 [18]", "result": 50, "unit": "%"}, {"measurement": "inhibition at 5 µM", "setting": "U-87 MG [19]", "result": 30, "unit": "%"}, {"measurement": "Activity", "setting": "PC-3 [20]", "result": 13.8, "unit": "%"}, {"measurement": "fold change (FC)", "setting": "PC-3 [21]", "result": 5.5}, {"measurement": "inhibition at 5 µM", "setting": "MDA-MB-231 [22]", "result": 30, "unit": "%"}, {"measurement": "Activity", "setting": "N2a", "result": "inactive"}, {"measurement": "Activity", "setting": "HT-29 [23]", "result": 5.5, "unit": "%"}, {"measurement": "Activity", "setting": "HT-29 [24]", "result": 8, "unit": "%"}, {"measurement": "Activity", "setting": "MDA-MB-231 [25]", "result": "Active"}, {"measurement": "Activity", "setting": "PC-3 [26]", "result": "inactive"}, {"measurement": "Activity", "setting": "MDA-MB-231 [27]", "result": 14.8, "unit": "%"}, {"measurement": "inhibition at 5 µM", "setting": "PC-3 [28]", "result": 30, "unit": "%"}, {"measurement": "Activity", "setting": "Caco-2", "result": "inactive"}, {"measurement": "fold change (FC)", "setting": "HT-29 [29]", "result": 10.5}, {"measurement": "Activity", "setting": "HT-29 [30]", "result": "Active"}, {"measurement": "Activity", "setting": "MDA-MB-231 [31]", "result": 4.5, "unit": "%"}, {"measurement": "Activity", "setting": "U-87 MG [32]", "result": "Active"}, {"measurement": "Activity", "setting": "MDA-MB-231 [33]", "result": "Active"}, {"measurement": "inhibition at 5 µM", "setting": "HT-29 [34]", "result": 50, "unit": "%"}]}]}
